The text below walks through data of article PMC12325145, “Preclinical evaluation of [^68Ga]Ga-AAZTA-FAPI-46: a novel PET tracer for targeting fibroblast activation protein (FAP)” (EJNMMI Radiopharmacy and Chemistry, 2025).

The target of this assay is T1, fibroblast activation protein (FAP) (Mus musculus, UniProt P97321).
T1 construct: murine FAP stably expressed in HEK293 cells (pCMV6-Kan/Neo-mFAP, Origene MC206606)
T1 sequence (P97321 1-761): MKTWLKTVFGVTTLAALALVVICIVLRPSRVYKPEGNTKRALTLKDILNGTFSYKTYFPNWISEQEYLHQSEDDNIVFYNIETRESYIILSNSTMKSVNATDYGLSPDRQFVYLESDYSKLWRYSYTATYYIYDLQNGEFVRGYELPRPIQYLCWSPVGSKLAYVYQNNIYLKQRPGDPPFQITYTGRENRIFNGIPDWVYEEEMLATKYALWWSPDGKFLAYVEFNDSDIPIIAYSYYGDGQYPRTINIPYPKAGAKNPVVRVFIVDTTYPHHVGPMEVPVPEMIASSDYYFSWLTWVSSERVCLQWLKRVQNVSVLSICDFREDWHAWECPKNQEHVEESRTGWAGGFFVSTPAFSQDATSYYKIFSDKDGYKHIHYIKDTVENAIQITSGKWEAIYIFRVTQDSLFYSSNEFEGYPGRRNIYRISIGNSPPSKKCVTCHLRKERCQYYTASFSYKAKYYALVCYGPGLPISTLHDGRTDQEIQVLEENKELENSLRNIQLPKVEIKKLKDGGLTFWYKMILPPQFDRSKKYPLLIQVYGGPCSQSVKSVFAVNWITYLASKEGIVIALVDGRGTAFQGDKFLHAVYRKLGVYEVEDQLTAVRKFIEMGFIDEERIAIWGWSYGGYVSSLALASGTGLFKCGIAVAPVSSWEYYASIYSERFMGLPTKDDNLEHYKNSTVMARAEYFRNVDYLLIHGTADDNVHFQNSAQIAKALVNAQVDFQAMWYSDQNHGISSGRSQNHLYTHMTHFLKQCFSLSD
The assay is described as follows: radioligand competition with unlabelled tracer on HEK293T-FAP cells, […] °C, […] h. The class given is cell-based. On the technique in general: Loss of bound radioactivity is the signal in a displacement assay; it reports binding, not function.

On to `CN(CCCN1CCN(C(=O)CCCCC2(N(CC(=O)[O-])CC(=O)[O-])CN(CC(=O)[O-])CCN(CC(=O)[O-])C2)CC1)c1ccc2nccc(C(=O)NCC(=O)N3CC(F)(F)C[C@@H]3C#N)c2c1.[68Ga+3]` [[^68Ga]Ga-AAZTA-FAPI-46], for which the IC50 worked out at 4.61 ± 0.21 nM.

The IC50 is the concentration that inhibits the measured activity by half. High values mean lower potency, low ones higher potency.
